Laboratory results published in paper PMC5613016, “GRL-09510, a Unique P2-Crown-Tetrahydrofuranylurethane -Containing HIV-1 Protease Inhibitor, Maintains Its Favorable Antiviral Activity against Highly-Drug-Resistant HIV-1 Variants in vitro” (Scientific Reports, 2017).

Key:
Type in all cases: cell-based
HIV-1LAI = assay: microbe, parasite or virus in culture
Description: (§1) The susceptibility of HIV-1LAI or HIV-2ROD to various compounds was determined as previously described[20]–[22]. Briefly, MT-2 cells (10^4/ml) were exposed to 100 TCID50 of HIV-1LAI or HIV-2ROD in the presence or absence of various concentrations of compounds in 96-well plates and were incubated at 37 °C for 7 days. After incubation, 100 μl of the medium was removed from each well, 3-(4,5-dimetylthiazol-2-yl)-2,5-diphenyltetrazolium bromide (MTT) solution (10 μl, 7.5 mg/ml in PBS) was added to each well, followed by incubation at 37 °C for 2 h. […] To determine the sensitivity of clinically isolated HIV-1s to compounds, PHA-PBMC (10^6/ml) were exposed to 50 TCID50 of each HIV-1 and cultured in the presence or absence of various concentrations of compounds in 10-fold serial dilutions in 96-well plates. In determining the drug-susceptibility of certain laboratory HIV-1 strains, MT-4 cells were employed as target cells as previously described[23],[24]. MT-4 cells (10^5/ml) were exposed to 100 TCID50 of drug-resistant HIV-1s in the presence or absence of various concentrations of compounds and were incubated at 37 °C. On day 7, the supernatants were harvested and the amounts of p24 were determined by using a fully-automated chemiluminescent enzyme immunoassay system (Lumipulse f: Fujirebio, Tokyo)[35]–[37]. […] All assays were performed in duplicate, and EC50 shown in this report represent average values of two to four independent experiments. PHA-PBMCs were derived from a single donor in each independent experiment. The research protocols described in the present study were carried out in accordance with relevant guidelines and regulations, and were approved in Ethics Committee for Epidemiological and General Research at the Faculty of Life Sciences, Kumamoto University.

HIV-2ROD = assay: microbe, parasite or virus in culture
Description: as §1

HIV-1MDR/C = assay: p24 production inhibition in PHA-PBMC
Method in brief: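 MT-2 cells (10^4/ml) infected with 100 TCID50 of HIV-1LAI or HIV-2ROD were cultured with compound for 7 days at 37 °C, then read by MTT. PHA-PBMC (10^6/ml, single donor per experiment) received 50 TCID50 clinical HIV-1 with 10-fold compound dilutions; MT-4 cells (10^5/ml) received 100 TCID50; day-7 supernatant p24 measured by chemiluminescent immunoassay.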

[1] = system: HIV-1NL4-3 variants selected with ATV, LPV and APV; assay: p24 assay in MT-4 cells, summary over PI-selected variants
Description: The susceptibility of HIV-1LAI or HIV-2ROD to various compounds was determined as previously described[20]–[22]. Briefly, MT-2 cells (10^4/ml) were exposed to 100 TCID50 of HIV-1LAI or HIV-2ROD in the presence or absence of various concentrations of compounds in 96-well plates and were incubated at 37 °C for 7 days. After incubation, 100 μl of the medium was removed from each well, 3-(4,5-dimetylthiazol-2-yl)-2,5-diphenyltetrazolium bromide (MTT) solution (10 μl, 7.5 mg/ml in PBS) was added to each well, followed by incubation at 37 °C for 2 h. […] To determine the sensitivity of clinically isolated HIV-1s to compounds, PHA-PBMC (10^6/ml) were exposed to 50 TCID50 of each HIV-1 and cultured in the presence or absence of various concentrations of compounds in 10-fold serial dilutions in 96-well plates. In determining the drug-susceptibility of certain laboratory HIV-1 strains, MT-4 cells were employed as target cells as previously described[23],[24]. MT-4 cells (10^5/ml) were exposed to 100 TCID50 of drug-resistant HIV-1s in the presence or absence of various concentrations of compounds and were incubated at 37 °C. On day 7, the supernatants were harvested and the amounts of p24 were determined by using a fully-automated chemiluminescent enzyme immunoassay system (Lumipulse f: Fujirebio, Tokyo)[35]–[37]. […]

HIV-1NL4-3 = assay: In vitro selection of resistant HIV-1 variants in MT-4 cells
Source text: MT-4 cells (10^5/ml) were exposed to HIV-1NL4-3 (500 TCID50) and cultured in the presence of compounds at an initial concentration of its EC50 value. Viral replication was monitored by the determination of the amount of p24 produced by MT-4 cells. The supernatants were harvested on day 7 and were used to infect fresh MT-4 cells for the next round of culture in the presence of increasing concentrations of each compound. Proviral DNAs obtained from the lysates of infected cells were subjected to sequencing. This selection procedure was carried out until the drug concentration reached 5 μM as previously described[20]–[22]).

SMILES: COc1ccc(S(=O)(=O)N(CC(C)C)CC(O)C(Cc2ccccc2)NC(=O)OC2C3COC4OCC2C4C3)cc1 (centres unmarked) [GRL-09510]
- EC50 (HIV-1LAI; Human immunodeficiency virus 1, MT2, MT-2 cells, 100 TCID50, MTT assay, read-out: EC50 Against HIV-1LAI): 1.4 ± 0.9 nM
- Selectivity Index (CC50/EC50) MT2/HIV-1LAI (HIV-1LAI; ratio of CC50 to EC50 against HIV-1LAI): 27,857
- EC50 (HIV-2ROD; MT-2 cells, 100 TCID50, MTT assay, read-out: EC50 Against HIV-2ROD): 1.8 ± 0.1 nM
- Selectivity Index (CC50/EC50) MT2/HIV-2ROD (HIV-2ROD; ratio of CC50 to EC50 against HIV-2ROD): 21,667
- EC50 (HIV-1MDR/C; Human immunodeficiency virus 1, PHA-PBMC, p24 Gag production): 3.2 ± 0.6 nM
- fold change of EC50 HIV-1MDR/C (HIV-1MDR/C; compared to EC50 for HIV-1ERS104pre): 1
- EC50 ([1]; Human immunodeficiency virus 1, MT4, MT-4 cells, variants selected with up to 5 µM ATV, LPV, APV, read-out: EC50 against PI-selected HIV-1NL4-3 variants): 3.7 to 4.8 nM
- fold-differences of EC50 against PI-selected variants ([1]; compared to against HIV-1NL4-3): 1~2
- selection concentration reached after 24 passages (HIV-1NL4-3; HIV-1NL4-3 first exposed to 0.003 µM): 0.105 µM
- concentrations in which the virus began continuously failing to propagate (HIV-1NL4-3; at around passage 30, selection discontinued at passage 37): > 0.27 µM
- fold greater selection concentration than the initial concentration after 24 passages (HIV-1NL4-3; initial 0.003 µM): 35 fold
